Here are results for two compounds from article PMC11923649, “Novel C-2 Aromatic Heterocycle-Substituted Triterpenoids Inhibit Hedgehog Signaling in GLI1 Overexpression Cancer Cells” (ACS Omega, 2025).

Read-outs that look alike come from different tables or passages of the source.

The subject of data set [1] is Hh signaling (Gli Reporter-NIH3T3, Gli-responsive FLuc). In words: Gli Reporter-NIH3T3 luciferase assay, mSHH or SAG induced. The following applies: mean ± SD, n=3. It is filed as cell-based. The protocol: To further validate the effect of new triterpenes on Hh signaling, we used the commercial reporter cell line NIH3T3–Gli reporter, which expresses the firefly luciferase (FLuc) gene under the control of a Gli-responsive element.
Gli Reporter-NIH3T3 (BPS Bioscience) cells were cultured in DMEM medium supplemented with 10% iron-supplemented bovine calf serum and under the selection pressure of Geneticin (500 μg/mL) at 37 °C in an atmosphere of 5% CO2 with 95% humidity. The Gli Reporter-NIH3T3 cell line expresses the firefly luciferase (FLuc) gene under the control of a Gli responsive element stably integrated into NIH3T3 cells. The cell line was validated through response to mSHH stimulation and the effect of commercially available Hh inhibitors (Cyclopamine). The assay was performed in 384-well white opaque microplates. Gli Reporter-NIH3T3 cells were transferred to Opti-MEM medium with a reduced content of 0.5% (v/v) iron-supplemented bovine calf serum, supplemented with a 1% solution of nonessential amino acids, 1 mmol/L sodium pyruvate, and 10 mmol/L HEPES, and seeded on the panel in a volume of 25 μL of cell suspension per well at a concentration of 2.5 × 10^5/mL. The following day, compounds were transferred at the concentration range of 16–0.25 μmol/L (dilution factor 2) and incubated for 2 h. Then, the mSHH ligand at concentrations of 0.25 and 0.5 μg/mL and SAG (a synthetic SMO agonist) at concentrations of 2 and 4 nmol/L were added to the wells. Controls representing DMSO-treated cells were also included at a concentration of 0.1% (v/v). Cells were incubated for another 24–30 h and then kept for 30 min at room temperature, and finally, 25 μL of Britelite plus reagent was added to each well. Plates were placed on a shaker to achieve complete cell lysis, and luminescence was measured after 3 min on an EnVision plate reader.

The subject of data set [2] is Gli1 protein in DU-145 cells. As to the kind of experiment: Western blot of Gli1 in DU-145 cells, 24 h. To be noted: DU-145, 24 h, immunoblot. Format: cell-based, human. The protocol: In order to verify that compounds 11a and 11b inhibit the proliferation of A549 and DU-145 through Hh inhibition, we monitored the expression of Hh target genes in these cell lines (Figure 2). […] The decreased protein expression of Gli1 targets Cyclin D1, N-Myc, and Bcl-2 strongly indicates inhibition of its transcriptional activity, and their downregulation correlates with the data obtained by the U-87 MG-Gli-FLuc reporter assay. Importantly, these proteins are involved in cell cycle progression, proliferation, and survival. N-Myc amplification or deregulation of transcription, stability, and degradation is associated with many malignancies,[34] and the observed downregulation induced by 11a and 11b may reduce its oncogenic effect.
Figure 2 Effect of compounds 11a and 11b on the protein expression of the Gli1 transcription factor and its transcriptional targets in A549 (A) and DU145 (B) cells following 24 h of incubation. […]
Cells were washed with PBS and lysed on ice in 200 μL of RIPA (Radioimmunoprecipitation Assay) buffer for 30 min. Then, cell lysates were clarified by centrifugation (15000 rpm, 20 min, 4 °C), and the protein concentration in the collected supernatants was determined using a BCA method (Bicinchoninic Acid test). […] Luminescence signal detection was performed by using an Odyssey FC instrument (LI-COR Biosciences).
A general note: Immunoblotting shows a protein as a band on a membrane.

A short description of another data set: Plasma stability. To be noted: human plasma. It is filed as in vitro ADME.
Data set [3] is described as follows: Plasma protein binding, Rapid Equilibrium Dialysis. To be noted: read-out: Plasma protein binding % Fraction bound (converted). Format: in vitro ADME. The protocol:
Data from a plasma protein binding study can inform about distribution into tissues of the body and reduction in the amount of drug available to be metabolized or cleared from the body. The measurement of plasma protein binding was performed using a Rapid Equilibrium Dialysis device; 11a and 11b compounds reported a percent of fraction bound around 90%. For the microsomal stability assay, human liver microsomes and NADPH cofactor were used to assess phase I oxidation by cytochrome P450 and flavin monooxygenases. The intrinsic clearance calculated from the microsomal stability assay indicated the medium category for both derivatives (Table 3).
On the technique in general: In equilibrium dialysis only unbound substance equilibrates across the membrane.

Data set [4] in a line: MDCK-MDR1 permeability assay. It is filed as in vitro ADME. The following applies: dog, MDCK-MDR1; for Papp A→B: cm/s, read-out: MDCK-MDR1 Papp (×10^−6). The text has this: (§1) The Parallel Artificial Membrane Permeability Assay (PAMPA) has emerged as a primary screen for determining passive transcellular permeability. […] The Caco-2 and MDCK-MDR1 permeability assays are established models of intestinal[37] and blood-brain barriers, respectively.[38]

Another data set has as its system MDCK-MDR1 monolayer. As to the kind of experiment: MDCK-MDR1 permeability assay. Format: in vitro ADME.
Description: as §1

For data set [5], the system named is MDR1. In words: MDCK-MDR1 permeability assay. It is filed as in vitro ADME. The following applies: dog, MDCK-MDR1; B–A / A–B.
Description: as §1

The nature of data set [6]: Caco-2 permeability assay. It is filed as in vitro ADME. To be noted: human, Caco-2; for Papp A→B: cm/s, read-out: Caco-2 Papp (×10^−6).
Description: as §1

A further data set deals with Caco-2 monolayer. In words: Caco-2 permeability assay. It is filed as in vitro ADME.
Description: as §1
(In general: Caco-2 monolayers are a common model of the intestinal barrier.)

For data set [7], the system named is MDR1. In words: Caco-2 permeability assay. Format: in vitro ADME. The following applies: human, Caco-2; B–A / A–B.
Description: as §1

[8] abbreviates: SAG (SMO agonist) 2 nM after 2 h preincubation, read-out: IC50 SAG stimulation 2 nM.
Where [9] appears, read: SAG (SMO agonist) 4 nM after 2 h preincubation, read-out: IC50 SAG stimulation 4 nM.
Where [10] appears, read: mSHH 0.25 μg/mL after 2 h preincubation, read-out: IC50 mSHH stimulation 0.25 (μg/mL).
Setting [11] is: mSHH 0.5 μg/mL after 2 h preincubation, read-out: IC50 mSHH stimulation 0.5 (μg/mL).

One may read the efflux ratio as the permeability from basolateral to apical divided by that in the opposite direction, in the common usage.

In the case of `C=C(C)[C@@H]1CC[C@]2(C(=O)O)CC[C@]3(C)C(CCC4[C@@]5(C)C=C(c6ccco6)C(=O)C(C)(C)C5CC[C@]43C)C12` (stereo partly shown) [Compound 11a, 2-(Furan-2-yl)-3-oxolupa-1,20(29)-dien-28-oic acid], the IC50 in [1] (setting [8]) stood at 4.5 ± 0.6 µM; in data set [1] (setting [9]), 3.8 ± 0.4 µM; in [1] (setting [10]), 3.5 ± 0.5 µM; in data set [1] (setting [11]) it was 1.9 ± 0.2 µM. In data set [2], the “Endogenous Gli1 protein level” value is “inhibit the endogenous Gli1 protein level in a dose-dependent manner”. Further, the “Plasma stability % Compound remaining 15 min” value in “Plasma stability” is reported as 103%. The “Plasma stability % Compound remaining 30 min” value in “Plasma stability” is on record as 100%. Besides, the “Plasma stability % Compound remaining 60 min” value in “Plasma stability” is 95%. Moreover, the fraction unbound in [3] is ~0.1. The results for the recovery in data set [4] and in data set [6] were 90.4% and 68.5%, respectively. Besides, the Papp A→B in data set [4] was 91.5 nm/s; in data set [6], 4.4 nm/s. The “MDCK-MDR1 Active efflux” value with MDCK-MDR1 monolayer was “No (less than or very close to the limit of active and passive efflux (≤2))”. Also, the efflux ratio in the data set on MDR1 [5] was determined as 1.53; in the data set on MDR1 [7], 2.33. For the same compound, the “Caco-2 Active efflux” value with Caco-2 monolayer was “Yes”.

Regarding `C=C(C)[C@@H]1CC[C@]2(C(=O)O)CC[C@]3(C)C(CCC4[C@@]5(C)C=C(c6ccoc6)C(=O)C(C)(C)C5CC[C@]43C)C12` (stereo partly shown) [Compound 11b, 2-(Furan-3-yl)-3-oxolupa-1,20(29)-dien-28-oic acid], the IC50 in data set [1] (setting [8]) stood at 3.5 ± 0.2 µM; in data set [1] (setting [9]) it was 4.1 ± 0.4 µM; in data set [1] (setting [10]), 3.2 ± 0.3 µM; in data set [1] (setting [11]), 2.4 ± 0.3 µM. The “Endogenous Gli1 protein level” value in data set [2] is reported as “inhibit the endogenous Gli1 protein level in a dose-dependent manner”. Besides, in “Plasma stability”, the “Plasma stability % Compound remaining 15 min” value is given as 103%. In addition, the “Plasma stability % Compound remaining 30 min” value in “Plasma stability” worked out at 104%. The “Plasma stability % Compound remaining 60 min” value in “Plasma stability” is recorded as 103%. Besides, the fraction unbound in [3] is ~0.1. For the same compound, the recovery in [4] is 94.7%; in data set [6], 58.2%. The Papp A→B in data set [4] turned out to be 18.5 nm/s; in data set [6] it was 10.7 nm/s. The “MDCK-MDR1 Active efflux” value in the data set with MDCK-MDR1 monolayer was “Yes”. Moreover, the efflux ratio came out at 2.46 in the data set on MDR1 [5] and 1.77 in the data set on MDR1 [7]. In addition, the “Caco-2 Active efflux” value with Caco-2 monolayer was “No (less than or very close to the limit of active and passive efflux (≤2))”.
